Data as given in PMC8305076, “Comprehensive Evaluation of Biological Effects of Pentathiepins on Various Human Cancer Cell Lines and Insights into Their Mode of Action” (International Journal of Molecular Sciences, 2021).
Where two headings read alike, the source gives them in different places.

Columns and labels:
pBR322 plasmid DNA = assay: plasmid cleavage assay; type: biochemical; set-up: key to DNA cleavage: no impact (0); weak impact (+); strong impact (++); conditions: for DNA cleavage: summary grade; for linearized plasmid (double-strand breaks) / open circular DNA (single-strand breaks): pH 7.1, 20 h, 37 °C
Description: We pursued two different strategies to assess the potential of the pentathiepins to damage DNA: a simple plasmid cleavage assay and the cellular Comet assay. The former is a straightforward method to investigate whether a test compound can cleave DNA in vitro, and if so, whether single and/or double strand breaks are created, while the latter is an ex vivo assay that measures DNA fragmentation in single cells. In the plasmid cleavage assay, a single strand break would relax the supercoiled plasmid (scDNA) and lead to the detection of open circular DNA (ocDNA), whereas a double-strand break would linearize the plasmid (linDNA). An agarose gel electrophoresis enables the discrimination of the distinct plasmid conformations due to their specific electrophoretic mobilities (Figure 11a).
This assay was used to assess the cleaving ability of the pentathiepins in a cell-free setting and on the basis of procedures described in [54]. Plasmids occur in three different conformations with distinct electrophoretic mobilities that can finally be separated visualized via agarose gel electrophoresis. For each condition, 0.3 µg of pBR322 plasmid DNA was incubated with either the pentathiepin or a corresponding amount of the solvent acetonitrile. Incubations were performed in sodium phosphate buffer (50 mM) with or without GSH for 20 h at 37 °C in a water bath. Afterwards, the samples were separated by using an agarose gel (1%) run at 80 V for 2 h. Resulting bands were stained with GelRed® (Sigma-Aldrich, Taufkirchen, Germany),) and imaged and quantified via Gel-Doc EZ Imager and Image Lab (Bio-Rad, Feldkirchen, Germany), respectively. To assess the cleavage ability of the pentathiepins, we incubated the plasmid with either 5 or 25 µM of compound at a fixed concentration of GSH (2 mM). In another experiment, the amount of GSH varied between 1 µM and 10 mM, while the pentathiepin concentration was 5 µM. In contrast to the aforementioned settings where a buffer pH of 7.1 was applied, in a third attempt, the influence of different pH on the cleavage outcome was analyzed by adjusting the buffer pH to 5.1, 6.1, or 8.1 while using fixed concentrations of both test compound and GSH. Another attempt to gain insights into the cleaving mechanism was made by adding either catalase, superoxide dismutase (100 µg/mL each), or both to 5 µM pentathiepin with 2 mM GSH.

[1] = system: panel of 14 human cancer cell lines; assay: MTT cell viability assay, whole panel; type: cell-based; set-up: key to Cytotoxicity: no impact (0); weak impact (+); strong impact (++); conditions: for Cytotoxicity: summary grade
Procedure: Distinct MTT cell viability and crystal violet cell proliferation assays were performed to assess the cytotoxicity of the compounds 1–6 on 14 human cancer cell lines. In the viability assay, cells with intact mitochondria and thus active dehydrogenases are competent to convert MTT to the corresponding insoluble formazan. The formazan can be photometrically detected after solubilization and allows for indirect conclusions about the viability of the cells as an IC50 value. In the crystal violet assay, cells are stained by the binding of the dye to the chromatin, thus allowing for a quantification of biomass that remains adherent after a treatment in comparison with a control after a specific time. Potency is defined as the growth inhibitory concentration 50% (GI50).
In addition to performing the cell viability assay under normoxia (19% atmospheric oxygen), incubations were also conducted under hypoxic conditions, i.e., atmospheric oxygen levels of 1% during the treatment for 48 h. Hypoxia is a favorable condition of the tumor microenvironment that is connected with poor outcome. Therefore, the low oxygen condition mimics better the tumor environment. The biological effect of the pentathiepins under this condition provides insight into their dependency for oxygen, which has been postulated a key component in the proposed mechanism of action (Figure 3). Consistent with the proposed mechanism of action for five of the compounds, potency decreased under hypoxic conditions; in fact for 6, the half-maximal inhibitory concentration exceeded the highest tested concentration of 10 µM in four cell lines (Figure 6, Table S3). […] In contrast to the other compounds, in some cell lines, the cytotoxic effects of 1 were more pronounced under oxygen-reduced incubation conditions (Figure 6), indicating a tangential role of oxygen availability for this pentathiepin. Especially for the breast cancer cell line MCF-7, the cytotoxicity increased substantially, indicated by a decrease of the IC50 from >10.0 µM to about 1.0 µM.
The effect of the pentathiepins on the viability of the cell lines was assessed via an MTT assay, performed as previously described. Healthy and viable cells convert the yellow soluble 3-(4,5-dimethylthiazol-2-yl)-2,5-diphenyltetrazolium bromide to the insoluble purple corresponding formazan, which can be spectrophotometrically measured. For this assay, 5000 cells (1 250 for LCLC-103H) in 0.1 mL of medium were seeded per well of a 96-well plate and incubated at standard conditions for 24 h prior to treatment. A serial dilution of the test compounds was prepared in medium, covering final concentrations from 10.0 to 0.04 µM, and 0.1 mL of the working solution was added to each well in triplicate. After 48 h, 20 µL of a 2.5 mg/mL MTT in PBS solution was pipetted into each well and further incubated for 4 h at standard conditions. Thereafter, medium was replaced with 50 µL DMSO, and the plates were put on a shaker for 5 min and subsequently read at λ = 570 nm, with a SpectraMax 384plus (Molecular Devices, Sunnyvale, CA, USA). The cell viabilities of the treatment conditions were calculated in relation to a solvent control sample. The absolute IC50 was calculated via nonlinear regression followed by interpolation of the dose–response graphs in Prism 7 (GraphPad, San Diego, CA, USA). The IC90 was derived from the IC50 by using the slope factor of the dose–response graph with the tool QuickCalcs from GraphPad (GraphPad Software, San Diego, CA, USA). […]

HAP-1 = assay: cell cycle analysis (PI staining); type: cell-based, human; conditions: IC90, 24 h
Procedure: (§1) The potent cytotoxicity and the potential to inhibit the proliferation of cancer cells accompanied by DNA damage effects raised the question as to whether cell cycle progression might be affected as a result of treatment with pentathiepins.
(§2) Cells were harvested by trypsinization, collected in 1.5 mL tubes, and washed twice with PBS by centrifuging for 5 min at 500× g and discarding the supernatant after every step. For fixation, 500 µL of ice-cold ethanol (70%) was added dropwise under vortexing with a subsequent incubation on ice for 30 min. Then, the cells were centrifuged for 10 min at 4000 rpm and 4 °C, the supernatant was removed, and the cells were resuspended in 500 µL of PBS containing 25 µg/mL of PI and 100 µg/mL of RNase. The staining solution was incubated for 30 min, and the cell suspension was measured at λEx/Em = 488/655–730 nm using a MACSquant Analyzer 10 (Miltenyi Biotec, Teterow, Germany).

DanG = assay: cell cycle analysis (PI staining); type: cell-based, human; conditions: IC90, 24 and 48 h (Figure 19a)
Procedure: as §1, §2

HAP-1.KO.GPx1 = assay: cell cycle analysis (PI staining); type: cell-based, human; conditions: IC90, 24 h
Procedure: as §1, §2

[2] = Homo sapiens, mean over the cell line panel, hypoxic, read-out: IC50 MTT-H, mean per compound
[3] = Homo sapiens, mean over the cell line panel, normoxic, read-out: IC50 MTT-N, mean per compound
[4] = mean over the cell line panel, normoxic, read-out: IC50 MTT-N, mean per compound

| SMILES | DNA cleavage (pBR322 plasmid DNA) | IC50 [1, 2] [nM] | IC50 [1, 3] [nM] | IC50 [1, 4] [nM] | Cytotoxicity [1] | increase of cells in G2/M-phase (HAP-1) | cell cycle distribution vs control (DanG) | increase of cells in G2/M-phase (HAP-1.KO.GPx1) | linearized plasmid (double-strand breaks) (pBR322 plasmid DNA; 25 µM, 2 mM GSH) | increase of cells in sub G1-phase (HAP-1) | decrease of G0/G1-phase cells (DanG) | increase of cells in G2/M-phase (DanG) [%] | increase of cells in sub G1-phase (DanG) [%] | increase of cells in sub G1-phase (HAP-1.KO.GPx1) | open circular DNA (single-strand breaks) (pBR322 plasmid DNA; 25 µM, 2 mM GSH) | open circular DNA (single-strand breaks) (pBR322 plasmid DNA; 5 µM, 2 mM GSH) | other results |
| --- | --- | --- | --- | --- | --- | --- | --- | --- | --- | --- | --- | --- | --- | --- | --- | --- | --- |
| CCOc1c2c(c3cnc4[nH]c(-c5ccc(OC)cc5)cc4n13)SSSSS2 [Compound 1, 11-Ethoxy-2-(4-methoxyphenyl)-3H-[1,2,3,4,5]pentathiepino[6′,7′:3,4]pyrrolo[1,2-a]pyrrolo[2,3-e]pyrazine] | + | 487 | 720 | 716 | ++ | No such effects were detected | caused no differences from a normal cell cycle | No such effects were detected | – | – | – | – | – | – | – | – | influence of buffer pH on plasmid cleavage (pBR322 plasmid DNA; 5 µM, 2 mM GSH, pH 5.1 to 8.1): a trend favoring lower pH for higher cleavage effects was observed but was not proven to be statistically significant |
| CCOc1c2c(c3ccc(C(=O)N4CCCCC4)cn13)SSSSS2 [Compound 2, (6-Ethoxy-[1,2,3,4,5]pentathiepino[6,7-a]indolizin-9-yl)(piperidinyl)methanone] | ++ | 2190 | 1380 | – | + | ≤ 30% | – | ≤ 30% | about 4% | up to 10% | roughly 15% | 6 | 8 | up to 10% | – | – | – |
| CCOc1c2c(c3ccc(C(=O)N4CCOCC4)cn13)SSSSS2 [Compound 3, (6-Ethoxy-[1,2,3,4,5]pentathiepino[6,7-a]indolizin-9-yl)(morpholino)methanone] | ++ | 1720 | 789 | – | ++ | ≤ 30% | – | ≤ 30% | about 4% | up to 10% | roughly 15% | 6 | 8 | up to 10% | about 75% | – | fraction of damaged DNA (pBR322 plasmid DNA; 5 µM, 2 mM GSH, no enzyme added (CAT/SOD experiment)): about 43%; open circular DNA (pBR322 plasmid DNA; 5 µM, 2 mM GSH, pH 5.1): 45%; open circular DNA (pBR322 plasmid DNA; 5 µM, 2 mM GSH, pH 6.1): 49%; open circular DNA (pBR322 plasmid DNA; 5 µM, 2 mM GSH, pH 8.1): 28%; amount of broken plasmid (pBR322 plasmid DNA; 5 µM, 2 mM GSH, plus 100 µg/mL CAT): 19%; amount of broken plasmid (pBR322 plasmid DNA; 5 µM, 2 mM GSH, plus 100 µg/mL SOD): 29%; amount of broken plasmid (pBR322 plasmid DNA; 5 µM, 2 mM GSH, plus CAT and SOD): 19% |
| CCOc1c2c(c3ccc(C(=O)N(CC)CC)cn13)SSSSS2 [Compound 4, 6-Ethoxy-N,N’-diethyl-[1,2,3,4,5]pentathiepino[6,7-a]indolizine-9-carboxamide] | ++ | 2050 | 1010 | – | ++ | ≤ 30% | – | ≤ 30% | about 4% | up to 10% | roughly 15% | 6 | 8 | up to 10% | about 75% | roughly 55% | – |
| CCOc1c2c(c3ccc(C(=O)N4CCN(C(=O)c5ccc(F)cc5)CC4)cn13)SSSSS2 [Compound 5, (6-Ethoxy-[1,2,3,4,5]pentathiepino[6,7-a]indolizin-9-yl)(4-(4-fluorobenzoyl)piperazinyl)methanone] | ++ | 1290 | 839 | – | ++ | ≤ 30% | – | ≤ 30% | about 4% | up to 10% | roughly 15% | 6 | 8 | up to 10% | about 75% | roughly 55% | – |
| CCOc1c2c(c3ccc(C(=O)N4CCN(S(=O)(=O)c5ccc(C)cc5)CC4)cn13)SSSSS2 [Compound 6, (6-Ethoxy-[1,2,3,4,5]pentathiepino[6,7-a]indolizin-9-yl)(4-tosylpiperazinyl)methanone] | + | 2460 | 2360 | 2360 | + | No such effects were detected | caused no differences from a normal cell cycle | No such effects were detected | – | – | – | – | – | – | – | – | IC50 ([1]; Homo sapiens, hypoxic conditions, in four cell lines, exceeded highest tested concentration, read-out: half-maximal inhibitory concentration): > 10000 nM |
